The target in one assay is T1, α1b-AR (Homo sapiens, UniProt P35368).
T1 construct: expressed in transfected cells; host or cells: COS cells (pcDNA3, transient DEAE-dextran transfection; membranes)
T1 sequence (P35368 1-520): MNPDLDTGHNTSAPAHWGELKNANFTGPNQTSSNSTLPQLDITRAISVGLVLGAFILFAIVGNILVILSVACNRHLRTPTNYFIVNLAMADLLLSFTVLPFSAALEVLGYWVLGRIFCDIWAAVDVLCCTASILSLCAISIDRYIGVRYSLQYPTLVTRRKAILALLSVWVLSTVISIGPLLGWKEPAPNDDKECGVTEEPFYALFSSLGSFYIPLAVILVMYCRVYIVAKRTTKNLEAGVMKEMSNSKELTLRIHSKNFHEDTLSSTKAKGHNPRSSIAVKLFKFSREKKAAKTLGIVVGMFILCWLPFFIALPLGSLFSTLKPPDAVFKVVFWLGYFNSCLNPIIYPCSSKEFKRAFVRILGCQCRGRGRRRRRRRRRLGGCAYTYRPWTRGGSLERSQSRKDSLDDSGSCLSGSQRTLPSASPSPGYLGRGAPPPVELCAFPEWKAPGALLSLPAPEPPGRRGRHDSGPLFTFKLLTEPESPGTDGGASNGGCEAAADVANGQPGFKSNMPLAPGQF
Kind of assay: receptor binding assay, [125I]-HEAT, membranes of COS cells expressing α1b-AR. The conditions noted are these: [125I]-HEAT 50 pM, human α1b-AR in COS cell membranes; unit 'nanomolar'. An excerpt:
(§1) The DNA sequences of the three cloned human α1-AR subtypes have been published. […] We used published DNA sequence information to design primers for use in RT-PCR amplification of each subtype to obtain cloned cDNAs. Human poly A+ RNA was obtained from commercially available sources and included hippocampus and prostate samples, sources which have been cited in the literature. For the primary screen a radio ligand binding assay was used which employed membrane preparations from cells expressing the individual cloned receptor cDNAs. Radiolabeled ligands with binding activity on all three subtypes (non-selective) are commercially available ([125I]-HEAT, [3H]-prazosin).
(§2) Each α1 receptor subtype was cloned from poly A+ RNA by the standard method of reverse transcription-polymerase chain reaction (RT-PCR). The following sources of polyA+ RNA were used for the cloning of the α1 receptor subtypes: α1a -AR, human hippocampus and prostate, α1b -AR, human hippocampus, α1d -AR, human hippocampus. The resulting cDNAs were cloned into the pcDNA3 mammalian expression vector (Invitrogen Corp., San Diego Calif.). Each DNA was sequenced for verification and to detect any possible mutations introduced during the amplification process. Any deviation in sequence from the published consensus for each receptor subtype was corrected by site-directed mutagenesis.
(§3) The three α1-AR subtypes (a, b, d) were transfected into COS cells using a standard DEAE-dextran procedure with a chloroquine shock. In this procedure, each tissue culture dish (100 mm) was inoculated with 3.5×10^6 cells and transfected with 10 μg of DNA. Approximately 72 hours post-transfection, the cells were harvested and COS membranes were prepared. Transfected COS cells from 25 plates (100 mm) were scraped and suspended in 15 mL of TE buffer (50 mM Tris-HCl, 5 mM EDTA, pH7.4). The suspension was disrupted with a homogenizer. It was then centrifuged at 1000×g for 10 minutes at […]. The supernatant was centrifuged at 34,500×g for 20 minutes at 4° C. The pellet was resuspended in 5 mL TNE buffer (50 mM Tris-HCl, 5 mM EDTA, 150 mM NaCl, pH7.4). The resulting membrane preparation was aliquoted and stored at -70° C. The protein concentration was determined following membrane solubilization with TritonX-100.
(§4) The ability of each compound to bind to each of the α1-AR subtypes was assessed in a receptor binding assay. [125I]-HEAT, a non-selective α1-AR ligand, was used as the radiolabeled ligand. Each well of a 96-well plate received: 140 μL TNE, 25 μL [125I]-HEAT diluted in TNE (50,000 cpm; final concentration 50 pM), 10 μL test compound diluted in DMSO (final concentration 1 pM-10 μM), […] COS cell membrane preparation expressing one of the three α1-AR subtypes (0.05-0.2 mg membrane protein). The plate was incubated for 1 hour at room temperature and the reaction mixtures were filtered through a Packard GF/C Unifilter filter plate. The filter plate was dried for 1 hour in a vacuum oven. Scintillation fluid ([…]) was added to each well, and the filter plate was counted in a Packard Topcount scintillation counter. Data was analyzed using GraphPad Prism software.

A further assay deals with T2, α1d-AR (Homo sapiens, UniProt P25100).
T2 construct: expressed in transfected cells; host or cells: COS cells (pcDNA3, transient DEAE-dextran transfection; membranes)
T2 sequence (P25100 1-572): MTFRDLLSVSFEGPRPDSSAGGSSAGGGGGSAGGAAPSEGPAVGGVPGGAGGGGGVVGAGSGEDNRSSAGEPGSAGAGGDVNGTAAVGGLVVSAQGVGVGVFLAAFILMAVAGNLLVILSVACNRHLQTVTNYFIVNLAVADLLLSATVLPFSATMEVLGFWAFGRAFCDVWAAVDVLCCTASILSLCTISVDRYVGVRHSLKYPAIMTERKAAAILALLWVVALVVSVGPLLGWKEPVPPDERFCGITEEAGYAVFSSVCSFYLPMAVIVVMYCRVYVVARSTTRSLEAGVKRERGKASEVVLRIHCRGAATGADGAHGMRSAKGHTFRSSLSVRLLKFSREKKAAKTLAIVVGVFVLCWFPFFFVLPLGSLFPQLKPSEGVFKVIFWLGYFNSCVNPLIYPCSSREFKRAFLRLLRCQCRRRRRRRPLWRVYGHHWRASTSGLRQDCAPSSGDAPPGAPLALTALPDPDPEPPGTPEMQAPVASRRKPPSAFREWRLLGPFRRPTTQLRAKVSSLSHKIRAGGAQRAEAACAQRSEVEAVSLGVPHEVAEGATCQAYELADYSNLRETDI
The assay is described as follows: receptor binding assay, [125I]-HEAT, membranes of COS cells expressing α1d-AR. To be noted: [125I]-HEAT 50 pM, human α1d-AR in COS cell membranes; unit 'nanomolar'.
Description: as §1, §2, §3, §4

A further assay deals with T3, α1a-AR (Homo sapiens, UniProt P35348).
T3 construct: expressed in transfected cells; host or cells: COS cells (pcDNA3, transient DEAE-dextran transfection; membranes)
T3 sequence (P35348 1-466): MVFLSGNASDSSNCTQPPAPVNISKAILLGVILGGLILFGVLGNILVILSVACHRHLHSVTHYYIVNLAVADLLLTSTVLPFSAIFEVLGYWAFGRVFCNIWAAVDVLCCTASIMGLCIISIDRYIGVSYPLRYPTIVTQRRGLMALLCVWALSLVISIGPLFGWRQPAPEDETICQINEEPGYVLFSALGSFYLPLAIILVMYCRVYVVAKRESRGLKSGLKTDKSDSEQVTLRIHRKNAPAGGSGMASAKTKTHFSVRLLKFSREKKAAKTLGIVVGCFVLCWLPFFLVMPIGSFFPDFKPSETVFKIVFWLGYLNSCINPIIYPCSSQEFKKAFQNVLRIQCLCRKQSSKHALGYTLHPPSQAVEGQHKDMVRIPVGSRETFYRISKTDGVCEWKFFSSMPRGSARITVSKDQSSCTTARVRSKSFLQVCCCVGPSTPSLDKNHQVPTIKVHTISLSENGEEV
The assay is described as follows: receptor binding assay, [125I]-HEAT, membranes of COS cells expressing α1a-AR. To be noted: [125I]-HEAT 50 pM, human α1a-AR in COS cell membranes; unit 'nanomolar'.
Description: as §1, §2, §3, §4

The structures appear in SMILES notation. Some results are limits rather than exact numbers.

`CC(C)Oc1ccccc1N1CCN(CC(O)CNC(=O)c2cccnc2Oc2ccccc2)CC1` (stereo not drawn) [Compound 3]: the IC50 turned out to be 909 nM at α1b-AR, 211 nM on α1d-AR and 1.5 nM on α1a-AR.

As for `CC(C)Oc1ccccc1N1CCN(CCCNC(=O)c2cccnc2Oc2ccccc2)CC1` [Compound 5], the IC50 on α1b-AR amounted to 151 nM; on α1d-AR, 40 nM; on α1a-AR it was 0.64 nM.

As to `CC(C)Oc1ccccc1N1CCN(C[C@@H](O)CNC(=O)c2cccnc2Oc2ccccc2)CC1` [Compound 8], the results for the IC50 on α1b-AR, on α1d-AR and on α1a-AR were 668 nM, 81 nM and 0.76 nM, respectively.

Turning to `COc1ccc(Oc2ncccc2C(=O)NCC(O)CN2CCN(c3ccccc3OC(C)C)CC2)cc1` (stereo not drawn) [Compound 10], the IC50 is 1910 nM at α1b-AR, 131 nM on α1d-AR and 2.4 nM at α1a-AR.

`CC(C)Oc1ccccc1N1CCN(CC(O)CNC(=O)c2cccnc2Nc2cccc(C(F)(F)F)c2)CC1` (stereo not drawn) [Compound 11]: the IC50 on α1b-AR stood at 1020 nM; at α1d-AR, 79 nM; on α1a-AR, 25 nM.

As for `CC(C)Oc1ccccc1N1CCN(CC(O)CNC(=O)c2cccnc2Sc2ccc(Cl)cc2)CC1` (stereo not drawn) [Compound 12], the results for the IC50 on α1b-AR, at α1d-AR and at α1a-AR were 806 nM, 299 nM and 2.6 nM, respectively.

Regarding `COc1ncccc1C(=O)NCC(O)CN1CCN(c2ccccc2OC(C)C)CC1` (stereo not drawn) [Compound 13], the half-inhibitory concentration (IC50) was above 2000 nM at α1b-AR, 191 nM at α1d-AR and 3.5 nM at α1a-AR.

As for `COC(CNC(=O)c1cccnc1Oc1ccccc1)CN1CCN(c2ccccc2OC(C)C)CC1` (stereo not drawn) [Compound 16], the IC50 at α1b-AR was 1360 nM; on α1d-AR, 21 nM; at α1a-AR, 2.4 nM.

For the compound `CC(C)Oc1ccccc1N1CCN(CC(=O)CNC(=O)c2cccnc2Oc2ccccc2)CC1` [Compound 17], the IC50 is 887 nM on α1b-AR, 546 nM at α1d-AR and 63 nM on α1a-AR.

On to `Cc1ccc(Oc2ncccc2C(=O)NC[C@H](O)CN2CCN(c3ccccc3OC(C)C)CC2)cc1` [Compound 18], for which the half-inhibitory concentration (IC50) at α1b-AR came to 290 nM; at α1d-AR, 50 nM; at α1a-AR, 0.51 nM.

As to `CC(C)Oc1ccccc1N1CCN(C[C@@H](O)CNC(=O)c2cccnc2Oc2ccc(Cl)cc2)CC1` [Compound 27], the IC50 on α1b-AR is 791 nM; at α1d-AR, 57 nM; on α1a-AR, 0.86 nM.

Consider `Cc1ccc(Oc2ncccc2C(=O)NC[C@@H](O)CN2CCN(c3ccccc3OC(C)C)CC2)cc1` [Compound 28], for which the IC50 on α1b-AR amounted to 361 nM; on α1d-AR it was 969 nM; at α1a-AR, 25 nM.

On to `Cc1ccc(Oc2ncccc2C(=O)NCCCN2CCN(c3ccccc3OC(C)C)CC2)cc1` [Compound 29], for which the IC50 on α1b-AR was above 2000 nM; on α1d-AR, 43 nM; at α1a-AR, 0.27 nM.

`CC(C)Oc1ccccc1N1CCN(CC(O)CNC(=O)c2cccnc2Oc2ccc(Cl)c(Cl)c2)CC1` (stereo not drawn) [Compound 30]: the IC50 on α1b-AR stood at 2250 nM; on α1d-AR, 56 nM; on α1a-AR, 2 nM.

On to `CC(C)Oc1ccccc1N1CCN(CC(O)CNC(=O)c2cccnc2Nc2ccccc2)CC1` (stereo not drawn) [Compound 31], for which the values for the IC50 on α1b-AR, on α1d-AR and at α1a-AR were 736 nM, 25 nM and 25 nM, respectively.

For `COc1ccccc1N1CCN(CC(O)CNC(=O)c2cccnc2Oc2ccccc2)CC1` (stereo not drawn) [Compound 32], the results for the IC50 on α1b-AR, at α1d-AR and at α1a-AR were 1570 nM, 147 nM and 30 nM, respectively.

With `CC(C)Oc1ccccc1N1CCN(CC(O)CNC(=O)c2cccnc2Oc2ccc(C(C)(C)C)cc2)CC1` (stereo not drawn) [Compound 33], the IC50 at α1b-AR is above 2000 nM; at α1d-AR it was 78 nM; on α1a-AR, 3.3 nM.

For `CCOc1ccccc1N1CCN(CC(O)CNC(=O)c2cccnc2Oc2ccccc2)CC1` (stereo not drawn) [Compound 34], the half-inhibitory concentration (IC50) at α1b-AR amounted to 132 nM; on α1d-AR it was 206 nM; at α1a-AR, 9.1 nM.

Take `CC(C)Oc1ccccc1N1CCN(C[C@H](O)CNC(=O)c2cccnc2Oc2ccccc2)CC1` [Compound 35]: the values for the IC50 at α1b-AR, at α1d-AR and on α1a-AR were 889 nM, 314 nM and 10.2 nM, respectively.

Consider `CC(C)Oc1ccccc1N1CCN(CC(O)CNC(=O)c2cccnc2Oc2ccc(F)cc2)CC1` (stereo not drawn) [Compound 36], for which the IC50 was 1180 nM at α1b-AR, 148 nM at α1d-AR and 1.5 nM on α1a-AR.

On to `CC(C)Oc1ccccc1N1CCN(CC(O)CNC(=O)c2cccnc2Oc2cccc(Cl)c2)CC1` (stereo not drawn) [Compound 37], for which the values for the IC50 on α1b-AR, at α1d-AR and at α1a-AR were 952 nM, 180 nM and 0.91 nM, respectively.

With `CC(C)Oc1ccccc1N1CCN(CC(O)CNC(=O)c2cccnc2Oc2cccc(N(C)C)c2)CC1` (stereo not drawn) [Compound 38], the IC50 worked out at 972 nM at α1b-AR, 56 nM on α1d-AR and 2 nM at α1a-AR.

Take `Cc1ccccc1Oc1ncccc1C(=O)NCC(O)CN1CCN(c2ccccc2OC(C)C)CC1` (stereo not drawn) [Compound 39]: the results for the concentration for half-maximal inhibition (IC50) on α1b-AR, on α1d-AR and at α1a-AR were 730 nM, 1.7 nM and 1.1 nM, respectively.

As to `COc1ccccc1Oc1ncccc1C(=O)NCC(O)CN1CCN(c2ccccc2OC(C)C)CC1` (stereo not drawn) [Compound 40], the figures for the IC50 on α1b-AR, at α1d-AR and at α1a-AR were 580 nM, 2.2 nM and 1.7 nM, respectively.

Consider `Cc1ccc(Oc2ncccc2C(=O)NCC(O)CN2CCN(c3ccccc3OC(C)C)CC2)cc1` (stereo not drawn) [Compound 41], for which the figures for the IC50 on α1b-AR, on α1d-AR and on α1a-AR were 928 nM, 21 nM and 0.52 nM, respectively.

As a reminder, the IC50 is the concentration needed to halve the response being measured. Low readings indicate greater potency, high ones weaker potency.

(Values after US6218396A, “Substituted pyridino arylpiperazines useful in the treatment of benign prostatic hyperplasia” (Orth-McNeil Pharmaceutical, Inc., priority 1999, dated 2001).)
